By IC50 is commonly meant the midpoint of a concentration-inhibition curve. For orientation: ΔTm means the change in melting temperature against a reference sample.

Assay [1] deals with FEbr1T (T. brucei G-quadruplex). Nature of the assay: FRET melting assay, FEbr1T. Type of assay: binding. To be noted: ligand 10 μM, oligonucleotide 200 nM, 10 mM KCl.
In a further assay the test system is MRC-5 cells. Nature of the assay: alamarBlue cytotoxicity assay, MRC-5. It counts as cell-based. To be noted: 72 h. On the technique in general: Alamar Blue is a resazurin reagent that responds to reducing activity.
Assay [2] has as its system F10T (DNA, hairpin, hexaethylene glycol (HEG, [(-CH2CH2O-)6]) linker between 10 and 11) TATAGCTATATATAGCTATA
In words: FRET melting. To be noted: K+ (10 mM KCl), 90 mM LiCl; 10 mM Li cacodylate; compound 10 µM, DNA 200 nM.

The subject of assay [3] is Fmt6363T (human mitochondrial G-quadruplex). Nature of the assay: FRET melting assay, Fmt6363T. It counts as binding. To be noted: ligand 10 μM, oligonucleotide 200 nM, 10 mM KCl.
For a further assay, the system named is BSF T. brucei parasites. In words: CellTiter-Glo luminescent cell viability assay. Type of assay: cell-based. To be noted: Trypanosoma brucei; BSF parasites, 72 h, luminescence; read-out: IC50 T. brucei (CellTiter-Glo). A general note: Cellular ATP, detected with luciferase, serves as a proxy for viable cell number.
The subject of assay [4] is promastigote form of L. major. In words: MTT-based antileishmanial assay, promastigotes. It counts as cell-based, Leishmania major. To be noted: for IC50: promastigotes, 72 h, MTT, error as σ; for selectivity index (SI) L. major: SI = IC50 MRC-5/IC50 L. major promastigotes. As to the method: The antileishmanial activity of the compounds against the promastigote form of L. major, the […] was determined using an MTT-based assay (Sigma-Aldrich). Stock solutions of the compounds were prepared in DMSO with the final DMSO percentage in each well maintained below 1%. 4 × 10^6 parasites per mL were incubated at 28 °C in 96-well plates (50 μL/well) either alone or in the presence of increasing concentrations of compounds DMSO for 72 h. After the incubation period, 10 μL of MTT (5 mg/mL) was added to each well, and the parasites were incubated for 4 h at 28 °C. Subsequently, cell lysis was performed using 50 μL/well of 20% SDS. […] Data were presented as the average of at least three independent measurements, each conducted under triplicate conditions. […] “single marker” […] S7

Assay [5] relates to F10T (hairpin duplex DNA). It counts as binding. To be noted: ligand 10 μM, oligonucleotide 200 nM, 10 mM KCl.
Assay [6] relates to Fmt6363T (DNA, G4) AGGGACGCGGGCGGGGGATATAGGGT
In words: FRET melting. To be noted: K+ (10 mM KCl), 90 mM LiCl; 10 mM Li cacodylate; compound 10 µM, DNA 200 nM.

In assay [7] the test system is FMycT (c-Myc promoter G4). In words: FRET melting assay, FMycT. It counts as binding. To be noted: ligand 10 μM, oligonucleotide 200 nM, 1 mM KCl.
Assay [8] deals with F21T Na+ (human telomeric G-quadruplex, sodium buffer). Type of assay: binding. To be noted: ligand 10 μM, oligonucleotide 200 nM, 100 mM NaCl.
Assay [9] deals with F21T K+ (human telomeric G-quadruplex, potassium buffer). Type of assay: binding. To be noted: ligand 10 μM, oligonucleotide 200 nM, 10 mM KCl.
For assay [10], the system named is FEbr1T (DNA, G4) GGGCAGGGGGTGATGGGGAGGAGCCAGGG
In words: FRET melting. To be noted: K+ (10 mM KCl), 90 mM LiCl; 10 mM Li cacodylate; compound 10 µM, DNA 200 nM.

The subject of assay [11] is bloodstream form of T. brucei. In words: alamarBlue (resazurin) antitrypanosomal assay. To be noted: for IC50: bloodstream form, 72 h, alamarBlue/resazurin, error as σ. It counts as cell-based, Trypanosoma brucei.
For the next assay, the system named is other G4 sequences. In words: FRET melting assay, other examined G4s. It counts as binding. To be noted: ligand 10 μM; range over the remaining G4s.
In assay [12] the test system is F21T (DNA, G4) GGGTTAGGGTTAGGGTTAGGG
Nature of the assay: FRET melting. To be noted: 10 mM Li cacodylate, compound 10 µM, DNA 200 nM.

Assay [13] relates to FMycT (DNA, G4) TTGAGGGTGGGTAGGGTGGGTAA
Nature of the assay: FRET melting. To be noted: K+ (1 mM KCl), 99 mM LiCl; 10 mM Li cacodylate; compound 10 µM, DNA 200 nM.

The next assay concerns HeLa cells. In words: alamarBlue antiproliferative assay, HeLa. It counts as cell-based, human. To be noted: for IC50: Homo sapiens, HeLa, 72 h, alamarBlue; for selectivity index (SI) HeLa: SI = IC50 MRC-5/IC50 HeLa.
The next assay has as its system HT-29 cells. In words: alamarBlue antiproliferative assay, HT-29. Type of assay: cell-based, human. To be noted: for IC50: Homo sapiens, HT-29, 72 h, alamarBlue; for selectivity index (SI) HT-29: SI = IC50 MRC-5/IC50 HT-29.
The subject of assay [14] is intracellular amastigote form of L. major. Nature of the assay: Luciferase assay, intracellular amastigotes in THP-1 macrophages. Type of assay: cell-based, Leishmania major. To be noted: for IC50: intracellular amastigotes in THP-1 macrophages, 72 h, luciferase; for selectivity index (SI) THP-1: SI = IC50 THP-1/IC50 L. major amastigotes. Here is the method:
The antileishmanial activity of the compounds against the intracellular form of L. major was evaluated using the Luciferase Assay System kit from Promega. THP-1 cells were seeded at a density of 3 × 10^5 cells/mL in 96-well plates (100 μL/well) and treated with 20 ng/mL PMA (phorbol 12-myristate 13-acetate, Sigma) for 48 h to induce differentiation. Postdifferentiation, the cells were washed, and fresh medium was added (100 μL/well) before being reincubated. Following an additional 24 h, the wells were washed, and 50 μL of L. major parasites at a density of 1.5 × 10^6 parasites/mL (suspended in RPMI-1640 medium 5% hiFBS and 5% penicillin/streptomycin) were added to the wells. The plates were then incubated at 35 °C in 5% CO2. After 24 h, the wells were washed three times with PBS, and fresh medium with increasing concentrations of compounds was added (100 μL/well). After another 72 h of incubation, the cells were then treated with 25 μL of lysis buffer and stored at −80 °C. Following 24 h, 25 μL of luciferase enzyme substrate was added to each well, and the luciferase activity of the amastigotes was determined using a TECAN Infinite F200 microplate reader. […] Data were presented as the average of at least three independent measurements, each conducted under triplicate conditions.
Parasite and cell culturing […]
Leishmania major (MHOM/IL/80/Friedlin) promastigotes and its derivative luminescent strain L. major LucRE9 with the luciferase gene integrated into the parasite genome (LUC) were cultured at 28 °C, 5 % CO2 in modified RPMI-1640 medium (Invitrogen, Carlsbad, CA) supplemented with 10 % hiFBS6, including […] blasticidin in the LucRE9 strain. 7 Parasites were maintained in culture in their […] growth phase (below 2 million T. brucei parasites per mL, ,10 million L. major parasites per mL for promastigotes experiments), and in the stationary phase , 20 million L. major parasites per mL for THP -1 infection experiments.
MRC-5 cell line (human lung fibroblast) was grown in monolayer at 37 °C, 5 % CO2 in DMEM medium (1 g/L glucose) supplemented with 10% hiFBS, 100 U/mL penicillin, […] streptomycin and 2 mM L-glutamine.8
THP-1 cells (human monocytic cell line) were maintained in RPMI-1640 medium supplemented with 10% heat-inactivated fetal bovine serum (hiFBS) and 5 % penicillin/streptomycin (37 °C, 5 % CO2, and 100 % humidity). […]

The test system of a further assay is THP-1 cells. Nature of the assay: alamarBlue cytotoxicity assay, PMA-differentiated THP-1. Type of assay: cell-based, human. To be noted: PMA-differentiated THP-1, 72 h.

Experimental for BSF T. brucei parasites: Ten μL portion of Cell Titer Glo was then added to every well, and after 10 min of incubation at room temperature, the luminescence of the plates was recorded using the Infinite F200 plate reader (TECAN Austria, GmbH). […] Presented data are the mean value of three independent measurements, all of them conducted under triplicate conditions.
Experimental for other G4 sequences: The stabilization of G4 structures was initially evaluated by using the Förster resonance energy transfer (FRET) melting assay. This analysis evaluated the binding of the compounds against four G4-forming oligonucleotides and a hairpin duplex sequence to determine both G4:duplex and G4:G4 selectivity.
FRET melting assays were performed to assess ligand affinity for duplex and G-quadruplex DNA.
proximity of the donor and quencher result in no observed fluorescence from FAM, since energy
is transferred non-radiatively to TAMRA by FRET. As the temperature is raised and the secondary
structure denatures, the fluorophores move further apart and the fluorescence signal increases.
From the resulting curve, the characteristic melting temperature (Tmax, also referred to as Tm) is
defined as the temperature which corresponds to the maxima of the first derivative of the
normalised fluorescence signal. The change in melting temperature (ΔTm) induced by the presence
of a small molecule ligand provides an indication of the ligand’s ability to stabilise the DNA
co-workers 12 on an AriaMx qPCR instrument.
min, before heating at 1 °C/min to 96 °C in 1 °C increments, followed by monitoring the
fluorescence output at each increment for 1 min. The fluorescence emission of FAM was followed
The final concentration of oligonucleotide was 200 nM in all cases. For F21T in Na+ conditions, […]

For `Cc1ccc2c(c1)sc(-c1ccc(N(C)C)cc1)[n+]2C` [ThT, Thioflavin T, reference compound], the “ΔTm FEbr1T” value in [1] was 4.5 ± 0.7 °C. Also, the IC50 in the assay with MRC-5 cells (MRC5, human lung fibroblasts) stood at 0.183 ± 0.038 µM; in the assay with BSF T. brucei parasites it was 62 ± 3 nM; in [4] (Leishmania major), 23 ± 0.2 nM; in assay [11] (Trypanosoma brucei), 4.7 ± 0.3 nM. Also, the ΔTm in [2] came to 0.1 ± 0.1 °C; in assay [6], 2.9 ± 0.4 °C; in assay [10], 4.5 ± 0.7 °C; in [12] (K+ (10 mM KCl), 90 mM LiCl), 5.5 ± 0.2 °C. Also, in assay [3], the “ΔTm Fmt6363T” value is 2.9 ± 0.4 °C. For the same molecule, in [5], the “ΔTm F10T” value was 0.1 ± 0.1 °C. In addition, in assay [7], the “ΔTm FMycT” value was 15.0 °C. Also, the “ΔTm F21T Na+” value in assay [8] is 1.4 ± 0.2 °C. The “ΔTm F21T K+” value in assay [9] came to 5.5 ± 0.2 °C. The “ΔTm for the other examined G4 sequences” value in the assay with other G4 sequences is 1.4–5.5 °C.

With `C[n+]1c(/C=C/c2ccc(-c3ccc(-c4ccc(N(c5ccccc5)c5ccccc5)cc4)cc3)o2)sc2ccccc21.[I-]` [compound 2d], the “ΔTm FEbr1T” value in [1] was 20.5 °C. Also, the IC50 in the assay on MRC-5 cells (MRC5, human lung fibroblasts) was found to be 3.24 ± 0.14 µM; in [4] (Leishmania major) it was 330 ± 17 nM; in assay [11] (Trypanosoma brucei), 10 ± 5 nM; in the assay on HeLa cells it was 5.28 ± 0.11 µM; in the assay with HT-29 cells, 3.79 ± 0.13 µM. For the same molecule, the ΔTm amounted to 16.7 ± 0.7 °C in assay [13]; 20.5 ± 1.3 °C in assay [10]; 18.5 ± 1.9 °C in assay [12] (K+ (10 mM KCl), 90 mM LiCl); 22.9 ± 0.9 °C in assay [12] (Na+ (100 mM NaCl)). For the same molecule, the “ΔTm Fmt6363T” value in [3] amounted to 18.5 ± 0.9 °C. Moreover, in assay [4], the “selectivity index (SI) L. major” value is 9.8. Further, the “ΔTm F10T” value in [5] worked out at 1.0 ± 0.1 °C. The “ΔTm FMycT” value in [7] was determined as 16.7 ± 0.7 °C. The “ΔTm F21T Na+” value in assay [8] was determined as 22.9 ± 0.9 °C. In assay [9], the “ΔTm F21T K+” value turned out to be 18.5 °C. Moreover, the “selectivity index (SI) HeLa” value in the assay with HeLa cells is on record as 0.62. Moreover, in the assay on HT-29 cells, the “selectivity index (SI) HT-29” value came to 0.86.

Consider `CN(C)c1ccc(/C=C/c2sc3ccccc3[n+]2C)c2ccccc12.[I-]` [2g], for which, in assay [1], the “ΔTm FEbr1T” value was found to be 8.9 ± 0.5 °C. For the same molecule, the IC50 amounted to 4.01 ± 0.09 µM in the assay with MRC-5 cells (MRC5, human lung fibroblasts); 170 ± 40 nM in assay [4] (Leishmania major); 20 ± 15 nM in assay [11] (Trypanosoma brucei); 29.1 ± 1.05 µM with HeLa cells; 89.5 ± 9.55 µM in the assay on HT-29 cells. Further, the results for the ΔTm in [13] and in assay [12] (Na+ (100 mM NaCl)) were 3.0 ± 1.1 °C and 3.4 ± 0.5 °C, respectively. In addition, the “ΔTm Fmt6363T” value in assay [3] was determined as 7.7 ± 0.3 °C. Besides, in assay [4], the “selectivity index (SI) L. major” value is given as 23.9. For the same molecule, in assay [5], the “ΔTm F10T” value is 0.4 ± 0.1 °C. Also, in assay [7], the “ΔTm FMycT” value stood at 3.0 ± 1.1 °C. Besides, the “ΔTm F21T Na+” value in assay [8] amounted to 3.4 ± 0.5 °C. The “ΔTm F21T K+” value in assay [9] came to 9.7 ± 0.2 °C. Also, in the assay on HeLa cells, the “selectivity index (SI) HeLa” value stood at 0.14. Also, the “selectivity index (SI) HT-29” value in the assay on HT-29 cells came to 0.04.

As to `C[C@@H]1[C@H](O)[C@@H](C)/C=C/C=C/C=C/C=C/C=C/C=C/C=C/[C@H](O[C@@H]2O[C@H](C)[C@@H](O)[C@H](N)[C@@H]2O)C[C@@H]2O[C@](O)(C[C@@H](O)C[C@@H](O)[C@H](O)CC[C@@H](O)C[C@@H](O)CC(=O)O[C@H]1C)C[C@H](O)[C@H]2C(=O)O` [AmB, Amphotericin B], the IC50 in assay [4] (Leishmania major) was found to be 1920 ± 50 nM; in [14] (Leishmania major), 4.41 ± 1.96 µM; with THP-1 cells (Homo sapiens), 9.89 ± 1.98 µM. Also, the “selectivity index (SI) THP-1” value in assay [14] is 2.24.

With `CCCCCCCCCCCCCCCCOP(=O)([O-])OCC[N+](C)(C)C` [miltefosine], the IC50 turned out to be 5710 ± 460 nM in assay [4] (Leishmania major), 5.1 ± 0.56 µM in [14] (Leishmania major) and 55.19 ± 0.11 µM in the assay on THP-1 cells (Homo sapiens). The “selectivity index (SI) THP-1” value in assay [14] is 10.82.

Consider `COS(=O)(=O)[O-].Cc1cc2c3c([n+](C)c4ccc(F)cc4c3c1)-c1cc(F)ccc1N2C` [RHPS4, 3,11-Difluoro-6,8,13-Trimethyl-8H-Quino[4,3,2-Kl]Acridinium Methosulfate, reference compound], for which the IC50 in the assay on MRC-5 cells (human lung fibroblasts) came to 4.12 ± 0.52 µM; in [4], 44 ± 15 nM; in assay [11] it was 350 ± 60 nM; in [14], 0.03 ± 0.02 µM; with THP-1 cells, 214 ± 3.36 µM. Besides, in [4], the “selectivity index (SI) L. major” value is listed as 93.64. Moreover, the “selectivity index (SI) T. brucei” value in [11] (SI = IC50 MRC-5/IC50 T. brucei (resazurin assay)) was 11.77. The “selectivity index (SI) MRC-5” value in assay [14] (SI = IC50 MRC-5/IC50 L. major amastigotes) is on record as 137.33. In addition, the “selectivity index (SI) THP-1” value in [14] is given as 7,131.

The values are drawn from PMC12643529 (ACS Infectious Diseases, 2025).
